From ChEMBL document CHEMBL1201862, “PubChem BioAssay data set” (2004)
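1) Cells in 96-well plates. 2) Compound, 48 h, 5 concentrations. 3) Linear interpolation between surrounding doses. 4) Unreached endpoint = highest concentration. GI50 is the concentration that inhibits growth by half.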 Active and inactive are the calls of the source. Rule as the data show it: active = GI50 up to about 1.1 µM and inactive = higher.

Columns and labels:
Experiment in all cases: NCI anticancer screen, dose series, 48 h
SF-268 = test system: SF-268
SK-MEL-5 = test system: SK-MEL-5
A549 = test system: A549
DU-145 = test system: DU-145
UO-31 = test system: UO-31
HT-29 = test system: HT-29
NCI/ADR-RES = test system: NCI/ADR-RES
OVCAR-4 = test system: OVCAR-4
NCI-H226 = test system: NCI-H226
SNB-19 = test system: SNB-19
OVCAR-5 = test system: OVCAR-5
OVCAR-8 = test system: OVCAR-8
HOP-62 = test system: HOP-62
OVCAR-3 = test system: OVCAR-3
HCT-15 = test system: HCT-15
NCI-H522 = test system: NCI-H522
TK-10 = test system: TK-10
K562 = test system: K562
HCT-116 = test system: HCT-116
RPMI-8226 = test system: RPMI-8226
ACHN = test system: ACHN
SK-MEL-2 = test system: SK-MEL-2
SF-295 = test system: SF-295
786-0 = test system: 786-0
SN12C = test system: SN12C
MDA-MB-435 = test system: MDA-MB-435
BT-549 = test system: BT-549
CAKI-1 = test system: CAKI-1
SK-OV-3 = test system: SK-OV-3
NCI-H460 = test system: NCI-H460
MCF7 = test system: MCF7
M14 = test system: M14
PC-3 = test system: PC-3
SW-620 = test system: SW-620
HOP-92 = test system: HOP-92
EKVX = test system: EKVX
RXF 393 = test system: RXF 393
MDA-MB-231 = test system: MDA-MB-231
HCC 2998 = test system: HCC 2998
SR = test system: SR
UACC-257 = test system: UACC-257
LOX IMVI = test system: LOX IMVI
SNB-75 = test system: SNB-75
KM12 = test system: KM12
COLO 205 = test system: COLO 205
T47D = test system: T47D
IGROV-1 = test system: IGROV-1
MOLT-4 = test system: MOLT-4
NCI-H23 = test system: NCI-H23
MDA-N = test system: MDA-N
U-251 = test system: U-251
SK-MEL-28 = test system: SK-MEL-28
Hs-578T = test system: Hs-578T
UACC-62 = test system: UACC-62
CCRF-CEM = test system: CCRF-CEM
SF-539 = test system: SF-539
Malme-3M = test system: Malme-3M
HL-60 = test system: HL-60

Measured: GI50

CCOC(=O)c1cc2cc(CSc3ccccc3)ccc2oc1=O
> 100 µM: HCT-15
inactive: SF-268 > 100 µM | SK-MEL-5 > 100 µM | A549 83.4 µM | DU-145 89.1 µM | UO-31 43.9 µM | HT-29 > 100 µM | NCI/ADR-RES > 100 µM | OVCAR-4 > 100 µM | NCI-H226 > 100 µM | SNB-19 46.8 µM | OVCAR-5 > 100 µM | OVCAR-8 > 100 µM | HOP-62 51.3 µM | OVCAR-3 96.6 µM | NCI-H522 > 100 µM | TK-10 57.9 µM | K562 82.2 µM | HCT-116 > 100 µM | RPMI-8226 51.9 µM | ACHN > 100 µM | SK-MEL-2 92.5 µM | SF-295 43.4 µM | 786-0 94.8 µM | SN12C > 100 µM | MDA-MB-435 > 100 µM | BT-549 > 100 µM | CAKI-1 > 100 µM | SK-OV-3 > 100 µM | NCI-H460 > 100 µM | MCF7 90.2 µM | M14 51.5 µM | PC-3 91.6 µM | SW-620 > 100 µM | HOP-92 > 100 µM | EKVX > 100 µM | RXF 393 39.4 µM | MDA-MB-231 52.6 µM | HCC 2998 42.6 µM | SR > 100 µM | UACC-257 > 100 µM | LOX IMVI > 100 µM | SNB-75 38.4 µM | KM12 > 100 µM | COLO 205 > 100 µM | T47D > 100 µM | IGROV-1 > 100 µM | MOLT-4 > 100 µM | NCI-H23 > 100 µM | MDA-N > 100 µM | U-251 > 100 µM | SK-MEL-28 > 100 µM | Hs-578T 52.1 µM | UACC-62 45.9 µM | CCRF-CEM > 100 µM | SF-539 91.8 µM | Malme-3M > 100 µM

CN(Cc1nc2c(N)nc(N)nc2nc1N)c1ccc(C(=O)NC(CCC(=O)O)C(=O)O)cc1 (stereo unspecified)
inactive: SK-MEL-5 1.55 µM | OVCAR-4 > 100 µM | NCI-H226 > 100 µM | SNB-19 64.6 µM | OVCAR-5 17.7 µM | OVCAR-3 > 100 µM | NCI-H522 > 33.6 µM | RPMI-8226 > 75.2 µM | SK-MEL-2 > 100 µM | BT-549 > 100 µM | SK-OV-3 > 100 µM | HOP-92 > 100 µM | RXF 393 > 100 µM | MDA-MB-231 > 100 µM | HCC 2998 3.65 µM | UACC-257 5.58 µM | SNB-75 7.45 µM | KM12 > 100 µM | COLO 205 > 100 µM | T47D > 100 µM | IGROV-1 3.07 µM | SK-MEL-28 > 76.4 µM | Hs-578T > 19.8 µM
0.0708 µM: HCT-15
active: SF-268 0.299 µM | DU-145 0.254 µM | UO-31 0.561 µM | HT-29 < 0.01 µM | NCI/ADR-RES 0.225 µM | OVCAR-8 0.0413 µM | HOP-62 0.231 µM | HL-60 < 0.01 µM | TK-10 0.752 µM | HCT-116 < 0.01 µM | ACHN 0.041 µM | SF-295 0.162 µM | 786-0 < 0.01 µM | SN12C 0.365 µM | MDA-MB-435 0.0277 µM | CAKI-1 0.0322 µM | NCI-H460 < 0.0122 µM | MCF7 0.0596 µM | M14 0.0615 µM | PC-3 < 0.01 µM | SW-620 0.033 µM | SR < 0.01 µM | LOX IMVI < 0.01 µM | MOLT-4 < 0.0163 µM | NCI-H23 0.544 µM | MDA-N 0.0442 µM | U-251 0.494 µM | UACC-62 0.0603 µM | CCRF-CEM < 0.01 µM | SF-539 0.0378 µM
